Results: article PMC10618744 (Cancer Discovery, 2023)

Target: PRMT5 (protein arginine methyltransferase 5) (Homo sapiens, UniProt O14744)
Type: biochemical

PRMT5 (protein arginine methyltransferase 5), sequence (O14744 2-637): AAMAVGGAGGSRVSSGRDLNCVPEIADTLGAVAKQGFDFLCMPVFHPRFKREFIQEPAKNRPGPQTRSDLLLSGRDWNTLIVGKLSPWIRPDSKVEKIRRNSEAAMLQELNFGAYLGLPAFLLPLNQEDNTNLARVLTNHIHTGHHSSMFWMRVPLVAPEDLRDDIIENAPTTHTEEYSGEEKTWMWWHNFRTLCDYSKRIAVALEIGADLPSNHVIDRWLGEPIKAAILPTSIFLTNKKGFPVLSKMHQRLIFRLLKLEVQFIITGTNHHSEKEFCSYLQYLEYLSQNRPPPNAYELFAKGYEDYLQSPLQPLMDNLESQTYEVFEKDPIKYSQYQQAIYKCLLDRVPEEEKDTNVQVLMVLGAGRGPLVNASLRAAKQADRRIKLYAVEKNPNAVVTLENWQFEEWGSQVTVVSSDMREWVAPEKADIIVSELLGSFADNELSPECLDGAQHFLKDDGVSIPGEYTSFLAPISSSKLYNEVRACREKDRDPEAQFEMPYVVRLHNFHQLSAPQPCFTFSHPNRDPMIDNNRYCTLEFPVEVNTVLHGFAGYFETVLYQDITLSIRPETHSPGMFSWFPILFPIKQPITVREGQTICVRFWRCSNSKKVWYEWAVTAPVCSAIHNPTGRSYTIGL
PRMT5 (protein arginine methyltransferase 5), sequence (Q9BQA1 2-342 partner): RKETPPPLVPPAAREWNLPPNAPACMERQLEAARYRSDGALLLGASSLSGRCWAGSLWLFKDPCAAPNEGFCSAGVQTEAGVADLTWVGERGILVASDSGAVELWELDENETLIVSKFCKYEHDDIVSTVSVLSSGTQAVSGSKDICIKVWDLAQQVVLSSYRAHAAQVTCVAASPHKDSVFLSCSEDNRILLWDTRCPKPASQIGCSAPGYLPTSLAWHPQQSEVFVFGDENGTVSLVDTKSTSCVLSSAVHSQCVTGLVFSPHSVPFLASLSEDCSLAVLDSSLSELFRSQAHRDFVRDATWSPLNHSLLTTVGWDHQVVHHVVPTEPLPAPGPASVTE

IC50: ~2000 nM
Compound: CSC[C@H]1O[C@@H](n2cnc3c(N)ncnc32)[C@H](O)[C@@H]1O [MTA]
